Experimental data: patent US20250163038A1, “CBL-B MODULATORS AND USES THEREOF” (Nimbus Clio, Inc., priority 2021, published 2025)
Like-named read-outs stand apart in the source and are kept apart here.

Tests used:
[1] = target: Recombinant human Cbl-b (aa 36-427) (Homo sapiens, UniProt Q13191); assay: Cbl-b Biochemical Assay (TR-FRET)
[2] = tested on: Jurkat (clone E6-1) cells with NFAT luciferase reporter; assay: Jurkat reporter assay (NFAT Luciferase); format: cell-based; conditions: Homo sapiens; Jurkat NFAT luciferase reporter cells, anti-CD3 stimulation, 6 hr; read-out: Jurkat NFAT EC50
[3] = target: T1, Recombinant human c-Cbl (aa 47-435) (Homo sapiens, UniProt P22681); assay: c-Cbl Biochemical Assay (TR-FRET)
T1 sequence (P22681 47-435): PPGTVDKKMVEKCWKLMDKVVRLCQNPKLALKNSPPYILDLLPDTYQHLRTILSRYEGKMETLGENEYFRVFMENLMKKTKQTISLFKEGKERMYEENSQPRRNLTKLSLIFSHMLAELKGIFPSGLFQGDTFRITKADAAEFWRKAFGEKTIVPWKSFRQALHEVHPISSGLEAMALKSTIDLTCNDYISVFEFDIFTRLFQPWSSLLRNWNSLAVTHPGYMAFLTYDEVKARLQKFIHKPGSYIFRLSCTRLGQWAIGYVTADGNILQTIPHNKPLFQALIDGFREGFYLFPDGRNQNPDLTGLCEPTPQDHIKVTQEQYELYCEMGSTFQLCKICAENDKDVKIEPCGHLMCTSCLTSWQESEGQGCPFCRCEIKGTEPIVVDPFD

[4] = hc-Cbl Biochemical Assay (TR-FRET), read-out: TR-FRET hcCbl IC50

Sequence of Recombinant human Cbl-b (aa 36-427) (Q13191 36-427): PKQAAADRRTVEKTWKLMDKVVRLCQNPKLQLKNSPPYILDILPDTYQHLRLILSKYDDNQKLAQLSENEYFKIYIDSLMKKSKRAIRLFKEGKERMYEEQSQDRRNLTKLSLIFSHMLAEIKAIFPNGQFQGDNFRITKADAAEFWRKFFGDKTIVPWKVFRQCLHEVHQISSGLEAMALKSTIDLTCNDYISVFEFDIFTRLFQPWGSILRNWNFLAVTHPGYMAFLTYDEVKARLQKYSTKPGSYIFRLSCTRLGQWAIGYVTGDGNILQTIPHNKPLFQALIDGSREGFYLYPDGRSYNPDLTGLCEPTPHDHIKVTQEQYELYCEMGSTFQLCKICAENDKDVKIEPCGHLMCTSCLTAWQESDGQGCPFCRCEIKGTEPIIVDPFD

| SMILES | IC50 ([1]; read-out: TR-FRET hCbl-b IC50) [nM] | EC50 [2] [nM] | IC50 [3, 4] [nM] | IC50 [1] [nM] | IC50 [3] [nM] |
| --- | --- | --- | --- | --- | --- |
| Cn1cnnc1-c1cc(F)ccc1-c1cc(-c2nc3cc(CN[C@@H]4CCC[C@@H]4O)ccc3[nH]2)nc(C2CC2)c1 [AEF-2, (1S,2R)-2-(((2-(6-Cyclopropyl-4-(4-fluoro-2-(4-methyl-4H-1,2,4-triazol-3-yl)phenyl)pyridin-2-yl)-1H-benzo[d]imidazol-5-yl)methyl)amino)cyclopentan-1-ol] | < 200 | 200 to 1000 | < 200 |  |  |
| Cn1cnnc1CC1(c2cccc(-c3nc4cc(CN5CCC6(CC6)C5)cc(C(F)(F)F)c4[nH]3)c2)COC1 [ABK-1, 5-((5-Azaspiro[2.4]heptan-5-yl)methyl)-2-(3-(3-((4-methyl-4H-1,2,4-triazol-3-yl)methyl)oxetan-3-yl)phenyl)-7-(trifluoromethyl)-1H-benzo[d]imidazole] | 200 to 1000 | 1000 to 10000 | 1000 to 10000 |  |  |
| Cn1cnnc1-c1cc(F)ccc1-c1cc(-c2nc3cc(C(C)(C)O)c(F)c(F)c3o2)nc(C2CC2)c1 [AHL-7, 2-(2-{6-cyclopropyl-4-[4-fluoro-2-(4-methyl-1,2,4-triazol-3-yl)phenyl]pyridin-2-yl}-6,7-difluoro-1,3-benzoxazol-5-yl)propan-2-ol] | 200 to 1000 | 1000 to 10000 | 1000 to 10000 |  |  |
| Cn1cnnc1-c1cc(F)ccc1-c1cccc(-c2nc3cc(CN4CC[C@H](O)C4)cc(C(F)(F)F)c3o2)c1 [AD-2, (S)-1-((2-(4′-Fluoro-2′-(4-methyl-4H-1,2,4-triazol-3-yl)-[1,1′-biphenyl]-3-yl)-7-(trifluoromethyl)benzo[d]oxazol-5-yl)methyl)pyrrolidin-3-ol] | < 200 | 1000 to 10000 | 1000 to 10000 |  |  |
| Cn1cnnc1-c1cc(F)ccc1-c1cccc(-c2nc3cc(CN[C@@H]4CCC[C@@H]4O)cc(C(F)(F)F)c3[nH]2)c1 [BM-2, (1S,2R)-2-(((2-(4′-Fluoro-2′-(4-methyl-4H-1,2,4-triazol-3-yl)-[1,1′-biphenyl]-3-yl)-7-(trifluoromethyl)-1H-benzo[d]imidazol-5-yl)methyl)amino)cyclopentan-1-ol] | < 200 | 200 to 1000 | 1000 to 10000 |  |  |
| Cn1cnnc1-c1cc(F)ccc1-c1cc(-c2nc3cc(CNCC4(O)CCC4)cc(C(F)(F)F)c3o2)nc(C2CC2)c1 [ADR-1, 1-((((2-(6-Cyclopropyl-4-(4-fluoro-2-(4-methyl-4H-1,2,4-triazol-3-yl)phenyl)pyridin-2-yl)-7-(trifluoromethyl)benzo[d]oxazol-5-yl)methyl)amino)methyl)cyclobutan-1-ol] | < 200 | < 200 | < 200 |  |  |
| Cn1cnnc1-c1cc(Cl)ccc1-c1cccc(-c2nc3cc(CO)ccc3o2)c1 [ADK-1, {2-[4′-Chloro-2′-(4-methyl-1,2,4-triazol-3-yl)-[1,1′-biphenyl]-3-yl]-1,3-benzoxazol-5-yl}methanol] | 1000 to 10000 | 10000 to 50000 | 1000 to 10000 |  |  |
| Cn1cnnc1-c1cc(F)ccc1-c1cccc(-c2nc3cc(CNCCF)cc(C(F)(F)F)c3o2)c1 [FD-2, 2-fluoro-N-((2-(4′-fluoro-2′-(4-methyl-4H-1,2,4-triazol-3-yl)-[1,1′-biphenyl]-3-yl)-7-(trifluoromethyl)benzo[d]oxazol-5-yl)methyl)ethan-1-amine] | < 200 | 200 to 1000 | < 200 |  |  |
| COC1(CNCc2cc(C(F)(F)F)c3oc(-c4cccc(-c5ccc(F)cc5-c5nncn5C)c4)nc3c2)CCC1 [DE-2, 1-(2-(4′-Fluoro-2′-(4-methyl-4H-1,2,4-triazol-3-yl)-[1,1′-biphenyl]-3-yl)-7-(trifluoromethyl)benzo[d]oxazol-5-yl)-N-((1-methoxycyclobutyl)methyl)methanamine] | < 200 | 200 to 1000 | < 200 |  |  |
| Cn1cnnc1-c1cc(F)ccc1-c1cc(-c2nc3cc(CN[C@@H]4CCC[C@@]4(C)O)cc(F)c3o2)nc(C2CC2)c1 [AFM-1, (1R,2R)-2-(((2-(6-Cyclopropyl-4-(4-fluoro-2-(4-methyl-4H-1,2,4-triazol-3-yl)phenyl)pyridin-2-yl)-7-fluorobenzo[d]oxazol-5-yl)methyl)amino)-1-methylcyclopentan-1-ol] |  | 1000 to 10000 |  | < 200 | 200 to 1000 |
| C[C@@H](c1cc(C(F)(F)F)c2oc(-c3cccc(C4(Cc5nncn5C)COC4)c3)nc2c1)N1CCC2(CC2)C1 [AAE-1, 5-[(1S)-1-{5-azaspiro[2.4]heptan-5-yl}ethyl]-2-(3-{3-[(4-methyl-1,2,4-triazol-3-yl)methyl]oxetan-3-yl}phenyl)-7-(trifluoromethyl)-1,3-benzoxazole] | < 200 | 200 to 1000 | < 200 |  |  |
| Cn1cnnc1-c1cc(F)ccc1-c1cc(-c2nc3cc(CN[C@@H]4CCC[C@@H]4O)c(F)c(F)c3o2)nc(C2CC2)c1 [AFY-2, (1S,2R)-2-{[(2-{6-Cyclopropyl-4-[4-fluoro-2-(4-methyl-1,2,4-triazol-3-yl)phenyl]pyridin-2-yl}-6,7-difluoro-1,3-benzoxazol-5-yl)methyl]amino}cyclopentan-1-ol] | < 200 | < 200 | < 200 |  |  |
| CCN(CC[C@@H](O)C(F)(F)F)Cc1cc(C(F)(F)F)c2oc(-c3cccc(-c4ccc(F)cc4-c4nncn4C)c3)nc2c1 [CR-2] | < 200 | 200 to 1000 | < 200 |  |  |
| COc1cc(CO)cc2nc(-c3cccc(-c4ccc(F)cc4-c4nncn4C)c3)oc12 [DW-3, (2-(4′-Fluoro-2′-(4-methyl-4H-1,2,4-triazol-3-yl)-[1,1′-biphenyl]-3-yl)-7-methoxybenzo[d]oxazol-5-yl)methanol] | 1000 to 10000 | 10000 to 50000 | 1000 to 10000 |  |  |

Now from value to compound, other results behind:

| IC50 ([1]; read-out: TR-FRET hCbl-b IC50) [nM] | EC50 [2] [nM] | IC50 [3, 4] [nM] | SMILES | IC50 [1] [nM] | IC50 [3] [nM] |
| --- | --- | --- | --- | --- | --- |
| < 200 | 200 to 1000 | < 200 | COCCNCc1cc(OC)c2oc(-c3cccc(-c4ccc(F)cc4-c4nncn4C)c3)nc2c1 [EL-1, N-((2-(4′-Fluoro-2′-(4-methyl-4H-1,2,4-triazol-3-yl)-[1,1′-biphenyl]-3-yl)-7-methoxybenzo[d]oxazol-5-yl)methyl)-2-methoxyethan-1-amine] |  |  |
| < 200 | < 200 | < 200 | Cn1cnnc1-c1cc(F)ccc1-c1cccc(-c2nc3cc(CN[C@@H]4CCC[C@@H]4O)cc(C4CC4)c3o2)c1 [ES-6, (1S,2R)-2-(((7-Cyclopropyl-2-(4′-fluoro-2′-(4-methyl-4H-1,2,4-triazol-3-yl)-[1,1′-biphenyl]-3-yl)benzo[d]oxazol-5-yl)methyl)amino)cyclopentan-1-ol] |  |  |
| < 200 | 200 to 1000 | < 200 | COc1cc(CN[C@@H]2CCC[C@@H]2O)cn2nc(-c3cccc(-c4ccc(F)cc4-c4nncn4C)c3)nc12 [IH-9, (1S,2R)-2-(((2-(4′-Fluoro-2′-(4-methyl-4H-1,2,4-triazol-3-yl)-[1,1′-biphenyl]-3-yl)-8-methoxy-[1,2,4]triazolo[1,5-a]pyridin-6-yl)methyl)amino)cyclopentan-1-ol] |  |  |
| < 200 | < 200 | < 200 | COc1cc(CN[C@@H]2CCC[C@@H]2O)cc2nc(-c3cccc(-c4ccc(F)cc4-c4nncn4C)c3)oc12 [DX-2, (1S,2R)-2-(((2-(4′-Fluoro-2′-(4-methyl-4H-1,2,4-triazol-3-yl)-[1,1′-biphenyl]-3-yl)-7-methoxybenzo[d]oxazol-5-yl)methyl)amino)cyclopentan-1-ol] |  |  |
| 1000 to 10000 | 10000 to 50000 | 1000 to 10000 | Cc1cc(CO)cc2nc(-c3cccc(-c4ccc(F)cc4-c4nncn4C)c3)oc12 [FE-3, (2-(4′-Fluoro-2′-(4-methyl-4H-1,2,4-triazol-3-yl)-[1,1′-biphenyl]-3-yl)-7-methylbenzo[d]oxazol-5-yl)methanol] |  |  |
| < 200 | < 200 | < 200 | CN(Cc1cc(C(F)(F)F)c2oc(-c3cccc(-c4ccc(F)cc4-c4nncn4C)c3)nc2c1)[C@@H]1CCC[C@@H]1O [FW-3, (1S,2R)-2-(((2-(4′-Fluoro-2′-(4-methyl-4H-1,2,4-triazol-3-yl)-[1,1′-biphenyl]-3-yl)-7-(trifluoromethyl)benzo[d]oxazol-5-yl)methyl)(methyl)amino)cyclopentan-1-ol] |  |  |
| 200 to 1000 | 1000 to 10000 | 200 to 1000 | Cn1cnnc1-c1cc(F)ccc1-c1cccc(-c2nc3cc(CO)cc(C(F)F)c3o2)c1 [EX-6, (7-(Difluoromethyl)-2-(4′-fluoro-2′-(4-methyl-4H-1,2,4-triazol-3-yl)-[1,1′-biphenyl]-3-yl)benzo[d]oxazol-5-yl)methanol] |  |  |
| 200 to 1000 | 1000 to 10000 | 1000 to 10000 | COCCNCc1cc(C)c2oc(-c3cccc(-c4ccc(F)cc4-c4nncn4C)c3)nc2c1F [JC-1, N-((4-Fluoro-2-(4′-fluoro-2′-(4-methyl-4H-1,2,4-triazol-3-yl)-[1,1′-biphenyl]-3-yl)-7-methylbenzo[d]oxazol-5-yl)methyl)-2-methoxyethan-1-amine] |  |  |
| < 200 | < 200 | < 200 | CC(C)CNCc1cc(C(F)(F)F)c2oc(-c3cccc(-c4ccc(F)cc4-c4nncn4C)c3)nc2c1 [FX-2, N-((2-(4′-Fluoro-2′-(4-methyl-4H-1,2,4-triazol-3-yl)-[1,1′-biphenyl]-3-yl)-7-(trifluoromethyl)benzo[d]oxazol-5-yl)methyl)-2-methylpropan-1-amine] |  |  |
